# Results reported in ChEMBL document CHEMBL3507680, “University of Dundee, Gates Library screen for HepG2 cell viability”.
# Experiment: Human HepG2 cell viability assay in 384 well format
# Assay type: toxicity, cell-based
# Design: dose 125 nL, time 70.5 hour; cytotoxicity at 70.5 h: concentration not given beside the values
# Conditions: HepG2 cells, read-out: Inhibition
row,SMILES,cytotoxicity at 70.5 h
1,COc1ccc(C(C)=O)c(OCC(=O)NC(C)c2ccc(F)cc2)c1 (centres undefined),-14.9%
2,Cc1ccc(NC(=O)c2cc3c(=O)n(C)c(=O)n(C)c3nc2C)cc1Cl,1.87%
3,CO[C@@H]1CCN(c2ncc(F)cn2)[C@H]1Cc1cnn(C)c1,-11.6%
4,CC(NC1(CNS(=O)(=O)N(C)C)CCCC1)c1ccccc1 (centres undefined),-13.2%
5,O=C(NCc1ccccn1)[C@@H]1CC[C@@H]2[C@@H](CCN2c2ncc(F)cn2)O1,-11.3%
6,COCCC(=O)N1CC2(CCN(c3ccccc3)C2)C1,3.88%
7,COCCN1CCCC(O)(CN2CCN(c3ccncc3C)CC2)C1=O (centres undefined),5.87%
8,CCCN1Cc2ccccc2CC1C(=O)NC (centres undefined),-0.114%
9,COc1ccc(CNC2CCN(c3ccccc3)C2)cc1O (centres undefined),19.7%
10,Cc1cc(C)n(C2CCN(c3ncnc4c3CCC4)C2)n1 (centres undefined),12.6%
11,CCOc1cccc(CNc2cncc(-n3cccn3)n2)c1,-8.59%
12,COc1c(C2CCCN2C(=O)c2ccnc(C)n2)c(C)nn1C (centres undefined),-12.9%
13,CC(C)Nc1nc2c(s1)C(=O)CN(CC1CC1)C2,2.03%
14,CCOCC1CN(Cc2ccc3c(c2)OCO3)Cc2ncn(C)c21 (centres undefined),-10.5%
15,CCS(=O)(=O)N1CCC(OCCCc2ccccc2)C1 (centres undefined),-3.57%
16,CC(C)CC(NC(=O)c1ccn(C)c(=O)c1)c1cccs1 (centres undefined),33.9%
17,Cc1cc(NC(=O)Cn2cnc(-c3cccs3)cc2=O)no1,-2.01%
18,COc1ccc2c(ccn2CCCN)c1,-7.17%
19,Cc1cccc(C(=O)N2CCCC(Cc3cncc4ccccc34)C2)n1 (centres undefined),-0.949%
20,NC(=O)c1c[nH]nc1NC(=O)c1ccc(Cl)cc1,-3.88%
21,O=C1NCC[C@]12CN(Cc1ccco1)C[C@H]2c1ccccc1,1.63%
22,Cc1nn(CC(C)C)c(C)c1CC(=O)N1CCCC(NS(C)(=O)=O)C1 (centres undefined),-3.7%
23,CC[C@@]1(O)CCN(C(=O)CCSCc2ccc(F)cc2)C[C@H]1O,14.3%

row,SMILES,cytotoxicity at 70.5 h
1,Cc1csc(NC(=O)CN2CCc3c(nc(C4CC4)n3C)C2)n1,-1.68%
2,CNC(=O)COC1COC2(CCN(Cc3ccncc3F)CC2)C1 (centres undefined),-18%
3,Brc1cnc(NCCCOCC2CCOC2)nc1 (centres undefined),-5.54%
4,COc1c(CNCc2cccc(C(=O)N(C)C)c2)c(C)nn1C,5.09%
5,O=C(c1ccc(Cn2cccc2)cc1)N1CCN(CCO)CC1,-4.52%
6,CCN1CCC(CC(=O)NCC(O)c2ccc3ccccc3c2)CC1 (centres undefined),9.43%
7,CC(C)c1cc(N[C@H](C(N)=O)C(C)C)n2nccc2n1,-4.75%
8,Cc1c(Cl)cccc1N1CC(c2nnc(N)s2)CC1=O (centres undefined),5.68%
9,COCCCN(CCOC)C(=O)Nc1ccccc1Br,-15.2%
10,CC1(C)OCC2(CO1)CN(S(=O)(=O)c1ccc(Br)s1)C2,4.85%
11,CC(C)C(=O)NC1COC2(CCN(C(=O)c3ccc[nH]3)CC2)C1 (centres undefined),-7.92%
12,CC(C)n1ccc(C(=O)N2CCCC(n3cncn3)C2)n1 (centres undefined),-10.6%
13,Cc1ccc(C(=O)Nc2ccc(N3CCCC3)cn2)cc1F,19.7%
14,CC(=O)N1CCCc2ccc(S(=O)(=O)N3CCCCC3C)cc21 (centres undefined),-3.92%
15,N#Cc1cccc(N2CCCC3(C2)CN(c2ncc(F)cn2)CCO3)n1 (centres undefined),1.87%
16,Cc1ccc(CC(=O)N(C)CC2(O)CCN(c3ccccn3)C2)s1 (centres undefined),-6.87%
17,COCCC(=O)N1CCCC1c1csc(Nc2ncccn2)n1 (centres undefined),-7.18%
18,O=C(NCCc1coc(-c2ccc(F)cc2)n1)NC1CCC(O)CC1 (centres undefined),27.6%
19,O=C(Cc1ccc2c(c1)CCC2)N1CCN(c2cnccn2)CC1,2.45%
20,CCn1cc(N2Cc3nc(N)ncc3C2=O)cn1,29.8%
21,CC(C)C(=O)N(C)Cc1nnc2n1CCCCC2,25%
22,CCN(Cc1noc(CC(C)C)n1)Cc1cccc(F)c1O,12.8%
23,O=C(CCN1CCCC1c1cccc2c1OCCO2)N1CCOCC1 (centres undefined),-2.76%

row,SMILES,cytotoxicity at 70.5 h
1,Cc1cccc(-c2ncc(CNC(C)CO)cn2)c1 (centres undefined),27.8%
2,CC(=O)NCC(=O)N1Cc2nc(COCc3csc(C)n3)oc2C1,-8.19%
3,CS(=O)(=O)NCCC(=O)N1Cc2cnc(-c3ccccc3)nc2C1,2.41%
4,CC(C)c1noc(CCC(=O)NCC(c2ccco2)N2CCCC2)n1 (centres undefined),-7.17%
5,Cc1nc(CNC2(C(=O)OC(C)(C)C)CCCC2)oc1C,-8.39%
6,O=C(c1ccc(F)cc1)N1C[C@@H]2OCCN(c3ncccn3)[C@@H]2C1,4.02%
7,COC(=O)Nc1cccc(C(=O)N(C)Cc2cccc(O)c2)c1,-6.41%
8,CCCOc1ccc(CCC(=O)Nc2nonc2C)cc1,-4.36%
9,COc1cc2nc3n(c(=O)c2cc1OC)CCN(C(C)=O)CC3,-13.7%
10,CCCn1ccc(C(=O)Nc2ccc3c(c2)C(C)(C)C(=O)N3C)n1,13.3%
11,COCCNC(=O)N1CCC(NC(C)C)CC1,5.14%
12,Cc1nn(COc2cccc(F)c2)c(C)c1NC(=O)C1CC1,2.57%
13,c1cnc(N2CCO[C@H]3[C@H](OCC4CC4)CC[C@@H]32)nc1,-7.29%
14,CCN(CC)S(=O)(=O)c1ccc(C(=O)NC(C)(C)C)cc1,35.7%
15,CCc1ccc(NC(=O)N2C[C@H]3C[C@H](C(=O)NC)[C@@H](C2)O3)cc1,3.53%
16,Cc1noc(C)c1CN1C[C@@H](C(=O)O)[C@H](c2ccccc2)C1,-5.34%
17,c1[nH]c(CC2CCCC2)nc1CN1CCCC2(CCOC2)C1 (centres undefined),-8.93%
18,Cn1c(-c2ccccc2Cl)nc2cc(C(=O)NCC3(C)COC3)cnc21,4.56%
19,COCCO[C@H]1COCCN(C2CCN(C)CC2)C1,12.5%
20,CCOc1ccc(CNC(=O)N2CCCC(CO)C2)cc1F (centres undefined),0.25%
21,CCOC(=O)CNC(=O)c1cccnc1Sc1cc(OC)ccc1OC,11.1%
22,Cc1nn(C)c(N(C)C)c1CNCc1cccc(CN(C)C(C)C)c1,-9.1%
23,COc1ccc(S(=O)(=O)C(F)(F)F)cc1NC(=O)CSC,-1.98%

row,SMILES,cytotoxicity at 70.5 h
1,O=C(Nc1ccc(Cl)cn1)c1cncc(C2CCNCC2)n1,-7.54%
2,COc1ccccc1OCCc1nnc(NC(=O)C2CC23CCC3)s1 (centres undefined),-2.4%
3,Cc1ccnc(N2CCC(=O)N(Cc3ccc(F)cc3)C(C(C)C)C2)n1 (centres undefined),-9.2%
4,Nc1cc2c(nn1)CCN(C(=O)c1cccc3c1OCO3)C2,2.4%
5,O=C(C1CC=CC1)N1CCc2c(COCc3ccncc3)cncc2C1,-10.9%
6,CC1CN(C(=O)c2cccc(OCc3cscn3)c2)CCO1 (centres undefined),-1.66%
7,CC(NC(=O)c1cc(=O)n(C)c(=O)n1C)c1ccccc1-n1cccn1 (centres undefined),4.9%
8,CCn1ncnc1C(C)NC(=O)COc1ccc(Cl)cc1Cl (centres undefined),-10.4%
9,Cc1oncc1C(=O)N[C@@H]1CN(Cc2ccco2)C[C@@H]2CCCO[C@@H]21,-3.33%
10,CNc1nc(C2CCCCN2C(=O)COC)nc2c1CN(C)CC2 (centres undefined),-9.52%
11,CNC(=O)C1CCN(S(C)(=O)=O)CC1,-10.2%
12,CCNC(=O)NC(=O)CNc1cccc(C(=O)c2ccccc2)c1,-12.7%
13,N#Cc1ncn(CCC(=O)Nc2c(Cl)cccc2Cl)n1,-6.06%
14,Cc1cc(C)cc(OCCC(=O)N2CCOCC2c2ncon2)c1 (centres undefined),5.7%
15,Cc1ccc(N2CC[C@H]3CO[C@H](CN(C)Cc4ccco4)[C@H]3C2)nn1,-0.777%
16,Cc1nn(C)cc1C(=O)N1CCCC(c2nccn2CC2CCC2)C1 (centres undefined),-28.4%
17,COC(=O)C(NC(=O)C(C)C)c1cc(F)ccc1F (centres undefined),-20.7%
18,COCC(=O)NCCC(=O)N1CCN(S(=O)(=O)c2cccc(Br)c2)CC1,-2.7%
19,Cc1ccnc(N2CCCC(c3nncn3C3CC3)C2)n1 (centres undefined),-2.88%
20,O=C(Cn1ccc2ncccc2c1=O)N1CCCCC1,13.3%
21,O=C(Cc1ccccn1)N1CCC2(CC1)CN(c1ccccn1)CCO2,-6.92%
22,COCC(=O)NC[C@H]1CC[C@H](c2nnc(-c3ccncc3)o2)CC1,15.8%
23,Cc1ncsc1C(=O)NCCOc1ncc(Cl)cc1Cl,1.13%

row,SMILES,cytotoxicity at 70.5 h
1,Cc1ncsc1C(=O)N(C)CCc1ccncc1,-2.51%
2,CCc1nsc(N2CCCN(C(=O)c3ccsc3)CC2)n1,14%
3,Cn1cc(CN2CC[C@@H](O)[C@@H]2Cc2ccccc2)cn1,-7.36%
4,Cc1cc(C)c2cc(C(=O)N3CCN(Cc4ccco4)CC3)[nH]c2c1,-13.2%
5,Cc1noc(C2CCN(C(=O)c3ccc(N(C)C)nc3)CC2)n1,-29.1%
6,N[C@@H]1c2ccccc2C2(CCN(c3ncccc3C(F)(F)F)CC2)[C@H]1O,44.1%
7,NC(=O)C(NC1CCN(CC2CCCCC2)CC1)c1ccc(F)cc1 (centres undefined),-9.96%
8,CS(=O)(=O)NC1CCN(C(=O)NCCNc2ccccn2)CC1,20.3%
9,CN(C)C(=O)CN1C[C@@H]2CC[C@H](C1)N(Cc1ccc3nsnc3c1)C2,3.82%
10,CN(Cc1nnc(-c2ccco2)o1)CC1CCCN1c1cccnn1 (centres undefined),5.51%
11,c1ccc(CNc2ncc(CN3CCCN4CCC[C@H]4C3)cn2)cc1,-3.55%
12,CC(C)N1[C@H](Cn2cncn2)C[C@@H]2CN(Cc3cccs3)CC[C@@H]21,-0.112%
13,CCN(CC)C(=O)CNC(=O)N1CCC(c2ccc(OC)cc2)C1 (centres undefined),12.9%
14,Cc1nc(N2CCCC2)nc2c1CCN(C(=O)C1CCC1)CC2,-12.5%
15,CC(C)NS(=O)(=O)c1ccccc1CNCc1cccc(O)c1,-3.47%
16,CCc1cnc(N2C[C@H]3CN(Cc4csc(C)n4)C(=O)[C@H]3C2)nc1,-8.61%
17,CNc1cc(C2CN(C(=O)c3cnn(C)c3)CCO2)nc(C)n1 (centres undefined),13.9%
18,Cc1cccc(OCCC(=O)NCC2CN(C)CCO2)c1C (centres undefined),-5.5%
19,Cc1nccn1CCC1CCNCC1,-4.48%
20,CNC(=O)c1cc2c(nc1NCC(C)C)CCN(c1ncccn1)CC2,4.12%
21,O=C(NCc1ccc(CN2CCCC2)cc1)NCc1ccon1,-3.38%
22,O=C(CCc1nccs1)N1CCN(c2cccnn2)CC1,-3.92%
